Test results from ChEMBL document CHEMBL1145498, “A systematic interaction map of validated kinase inhibitors with Ser/Thr kinases” (Proc Natl Acad Sci U S A, 2007).

biological target: T1, Calcium/calmodulin-dependent protein kinase type IV (Homo sapiens) (UniProt Q16566)
T1 sequence (whole entry): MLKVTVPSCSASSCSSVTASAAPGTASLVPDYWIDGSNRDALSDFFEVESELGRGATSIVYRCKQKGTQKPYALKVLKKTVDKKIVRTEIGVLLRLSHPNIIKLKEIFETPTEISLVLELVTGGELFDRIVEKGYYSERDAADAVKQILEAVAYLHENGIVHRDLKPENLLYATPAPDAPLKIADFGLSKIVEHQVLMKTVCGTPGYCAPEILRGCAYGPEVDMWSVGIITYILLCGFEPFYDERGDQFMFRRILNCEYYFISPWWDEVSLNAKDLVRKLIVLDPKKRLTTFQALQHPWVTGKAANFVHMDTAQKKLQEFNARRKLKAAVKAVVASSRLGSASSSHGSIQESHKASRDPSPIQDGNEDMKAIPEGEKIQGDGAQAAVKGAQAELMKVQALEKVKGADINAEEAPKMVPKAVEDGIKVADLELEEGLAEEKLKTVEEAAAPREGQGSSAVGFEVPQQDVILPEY

Q: `C[C@@H]1C[C@H]2O[C@@H]2/C=C\C=C\C(=O)Cc2c(Cl)c(O)cc(O)c2C(=O)O1` [RADICICOL] was tested. Which ΔTm did it give?
A: -0.1 °C

Q: How did the ΔTm turn out when `Cc1c2ccncc2c(C)c2c1[nH]c1ccccc12` [ELLIPTECINE] was run?
A: 0.4 °C

Q: Which ΔTm does the source give for `O=C1C(Cl)=C(N2C(=O)CCC2=O)C(=O)c2ccccc21` here?
A: 1.2 °C

Q: With `O=C1Nc2ccc(S(=O)(=O)O)cc2/C1=C1/Nc2ccccc2/C1=N\O` as the molecule, how does the ΔTm read?
A: 1.3 °C

Q: How did the ΔTm turn out when `C[S+]([O-])c1ccc(-c2nc(-c3ccc(F)cc3)c(-c3ccncc3)[nH]2)cc1` (stereo not given) [SB-203580] was run?
A: 0 °C

biological target: Cyclin-dependent kinase 2 (Homo sapiens, UniProt P24941)

Q: For `C[C@@H]1C[C@H]2O[C@@H]2/C=C\C=C\C(=O)Cc2c(Cl)c(O)cc(O)c2C(=O)O1` [RADICICOL], which ΔTm is on record?
A: 0.5 °C

Q: How did the ΔTm turn out when `Cc1c2ccncc2c(C)c2c1[nH]c1ccccc12` [ELLIPTECINE] was run?
A: 1.6 °C

Q: Which ΔTm does the source give for `O=C1C(Cl)=C(N2C(=O)CCC2=O)C(=O)c2ccccc21` here?
A: -1.1 °C

Q: Which ΔTm does the source give for `O=C1Nc2ccc(S(=O)(=O)O)cc2/C1=C1/Nc2ccccc2/C1=N\O` here?
A: 8.1 °C

Q: `C[S+]([O-])c1ccc(-c2nc(-c3ccc(F)cc3)c(-c3ccncc3)[nH]2)cc1` (stereo not given) [SB-203580] was tested. Which ΔTm did it give?
A: -0.1 °C

biological target: Casein kinase I isoform gamma-2 (Homo sapiens) (UniProt P78368)
Sequence (P78368 whole entry, looked up, canonical isoform): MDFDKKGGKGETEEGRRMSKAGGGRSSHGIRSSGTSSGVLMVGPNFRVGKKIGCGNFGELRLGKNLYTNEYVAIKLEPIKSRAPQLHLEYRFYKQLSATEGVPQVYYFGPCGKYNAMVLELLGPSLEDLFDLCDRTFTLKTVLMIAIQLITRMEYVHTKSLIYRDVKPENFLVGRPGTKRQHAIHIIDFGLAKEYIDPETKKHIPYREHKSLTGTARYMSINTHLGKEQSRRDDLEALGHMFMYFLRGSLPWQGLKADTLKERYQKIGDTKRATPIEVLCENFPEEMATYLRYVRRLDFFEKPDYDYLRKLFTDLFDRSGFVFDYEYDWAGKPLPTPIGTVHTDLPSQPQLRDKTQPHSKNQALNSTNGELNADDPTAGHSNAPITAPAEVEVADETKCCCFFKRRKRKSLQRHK

Q: How did the ΔTm turn out when `C[C@@H]1C[C@H]2O[C@@H]2/C=C\C=C\C(=O)Cc2c(Cl)c(O)cc(O)c2C(=O)O1` [RADICICOL] was run?
A: 0 °C

Q: Which ΔTm does the source give for `Cc1c2ccncc2c(C)c2c1[nH]c1ccccc12` [ELLIPTECINE] here?
A: 0.2 °C

Q: Which ΔTm does the source give for `O=C1C(Cl)=C(N2C(=O)CCC2=O)C(=O)c2ccccc21` here?
A: 0.1 °C

Q: For `O=C1Nc2ccc(S(=O)(=O)O)cc2/C1=C1/Nc2ccccc2/C1=N\O`, which ΔTm is on record?
A: 2.5 °C

Q: How did the ΔTm turn out when `C[S+]([O-])c1ccc(-c2nc(-c3ccc(F)cc3)c(-c3ccncc3)[nH]2)cc1` (stereo not given) [SB-203580] was run?
A: 0.7 °C

biological target: Serine/threonine-protein kinase PAK 4 (Homo sapiens) (UniProt O96013)
Sequence (O96013 whole entry, looked up): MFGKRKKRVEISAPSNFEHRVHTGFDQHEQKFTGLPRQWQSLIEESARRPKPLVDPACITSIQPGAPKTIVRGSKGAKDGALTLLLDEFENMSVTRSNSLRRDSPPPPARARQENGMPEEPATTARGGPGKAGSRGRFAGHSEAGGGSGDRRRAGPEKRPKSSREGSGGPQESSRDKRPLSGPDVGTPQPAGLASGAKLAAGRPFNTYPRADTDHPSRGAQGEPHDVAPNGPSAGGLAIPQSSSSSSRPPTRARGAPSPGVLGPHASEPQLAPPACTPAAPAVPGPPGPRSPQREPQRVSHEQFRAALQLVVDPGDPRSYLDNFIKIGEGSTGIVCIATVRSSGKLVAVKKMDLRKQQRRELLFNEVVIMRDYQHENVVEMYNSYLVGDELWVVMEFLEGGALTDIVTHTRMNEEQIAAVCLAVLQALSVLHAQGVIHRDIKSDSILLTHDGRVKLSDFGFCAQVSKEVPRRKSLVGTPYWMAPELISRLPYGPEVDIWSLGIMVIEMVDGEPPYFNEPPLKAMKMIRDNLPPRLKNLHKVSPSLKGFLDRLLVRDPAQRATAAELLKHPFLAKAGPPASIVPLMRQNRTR

Q: `C[C@@H]1C[C@H]2O[C@@H]2/C=C\C=C\C(=O)Cc2c(Cl)c(O)cc(O)c2C(=O)O1` [RADICICOL] was tested. Which ΔTm did it give?
A: 1.3 °C

Q: With `Cc1c2ccncc2c(C)c2c1[nH]c1ccccc12` [ELLIPTECINE] as the molecule, how does the ΔTm read?
A: 0.7 °C

Q: For `O=C1C(Cl)=C(N2C(=O)CCC2=O)C(=O)c2ccccc21`, which ΔTm is on record?
A: -0.4 °C

Q: `O=C1Nc2ccc(S(=O)(=O)O)cc2/C1=C1/Nc2ccccc2/C1=N\O` was tested. Which ΔTm did it give?
A: 2.7 °C

Q: For `C[S+]([O-])c1ccc(-c2nc(-c3ccc(F)cc3)c(-c3ccncc3)[nH]2)cc1` (stereo not given) [SB-203580], which ΔTm is on record?
A: 0.1 °C

biological target: Serine/threonine-protein kinase pim-3 (Homo sapiens) (UniProt Q86V86)

Q: How did the ΔTm turn out when `C[C@@H]1C[C@H]2O[C@@H]2/C=C\C=C\C(=O)Cc2c(Cl)c(O)cc(O)c2C(=O)O1` [RADICICOL] was run?
A: 0.5 °C

Q: With `Cc1c2ccncc2c(C)c2c1[nH]c1ccccc12` [ELLIPTECINE] as the molecule, how does the ΔTm read?
A: 1.3 °C

Q: `O=C1C(Cl)=C(N2C(=O)CCC2=O)C(=O)c2ccccc21` was tested. Which ΔTm did it give?
A: -1.7 °C

Q: Which ΔTm does the source give for `O=C1Nc2ccc(S(=O)(=O)O)cc2/C1=C1/Nc2ccccc2/C1=N\O` here?
A: 5.1 °C

Q: `C[S+]([O-])c1ccc(-c2nc(-c3ccc(F)cc3)c(-c3ccncc3)[nH]2)cc1` (stereo not given) [SB-203580] was tested. Which ΔTm did it give?
A: 0 °C

biological target: Serine/threonine-protein kinase RIO2 (Homo sapiens) (UniProt Q9BVS4)
Sequence (Q9BVS4 whole entry, looked up): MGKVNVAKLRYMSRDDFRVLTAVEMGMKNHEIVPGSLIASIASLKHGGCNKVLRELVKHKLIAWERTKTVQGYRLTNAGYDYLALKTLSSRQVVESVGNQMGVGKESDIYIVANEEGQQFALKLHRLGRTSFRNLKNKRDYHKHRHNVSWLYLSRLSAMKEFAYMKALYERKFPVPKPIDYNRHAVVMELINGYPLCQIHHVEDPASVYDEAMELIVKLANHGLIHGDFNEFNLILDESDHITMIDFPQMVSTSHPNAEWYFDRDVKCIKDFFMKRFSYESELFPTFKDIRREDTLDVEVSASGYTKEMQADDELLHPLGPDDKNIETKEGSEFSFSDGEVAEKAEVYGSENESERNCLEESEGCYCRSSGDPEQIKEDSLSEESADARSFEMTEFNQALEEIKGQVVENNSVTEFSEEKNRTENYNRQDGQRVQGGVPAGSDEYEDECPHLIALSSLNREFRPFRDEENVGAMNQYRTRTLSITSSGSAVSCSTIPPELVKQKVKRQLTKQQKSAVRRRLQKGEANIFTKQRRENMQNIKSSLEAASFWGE

Q: How did the ΔTm turn out when `C[C@@H]1C[C@H]2O[C@@H]2/C=C\C=C\C(=O)Cc2c(Cl)c(O)cc(O)c2C(=O)O1` [RADICICOL] was run?
A: -0.5 °C

Q: For `Cc1c2ccncc2c(C)c2c1[nH]c1ccccc12` [ELLIPTECINE], which ΔTm is on record?
A: 3.8 °C

Q: For `O=C1C(Cl)=C(N2C(=O)CCC2=O)C(=O)c2ccccc21`, which ΔTm is on record?
A: -1.5 °C

Q: For `O=C1Nc2ccc(S(=O)(=O)O)cc2/C1=C1/Nc2ccccc2/C1=N\O`, which ΔTm is on record?
A: 1.2 °C

Q: With `C[S+]([O-])c1ccc(-c2nc(-c3ccc(F)cc3)c(-c3ccncc3)[nH]2)cc1` (stereo not given) [SB-203580] as the molecule, how does the ΔTm read?
A: -0.2 °C

biological target: Ribosomal protein S6 kinase alpha-3 (Homo sapiens) (UniProt P51812)
Sequence (P51812 whole entry): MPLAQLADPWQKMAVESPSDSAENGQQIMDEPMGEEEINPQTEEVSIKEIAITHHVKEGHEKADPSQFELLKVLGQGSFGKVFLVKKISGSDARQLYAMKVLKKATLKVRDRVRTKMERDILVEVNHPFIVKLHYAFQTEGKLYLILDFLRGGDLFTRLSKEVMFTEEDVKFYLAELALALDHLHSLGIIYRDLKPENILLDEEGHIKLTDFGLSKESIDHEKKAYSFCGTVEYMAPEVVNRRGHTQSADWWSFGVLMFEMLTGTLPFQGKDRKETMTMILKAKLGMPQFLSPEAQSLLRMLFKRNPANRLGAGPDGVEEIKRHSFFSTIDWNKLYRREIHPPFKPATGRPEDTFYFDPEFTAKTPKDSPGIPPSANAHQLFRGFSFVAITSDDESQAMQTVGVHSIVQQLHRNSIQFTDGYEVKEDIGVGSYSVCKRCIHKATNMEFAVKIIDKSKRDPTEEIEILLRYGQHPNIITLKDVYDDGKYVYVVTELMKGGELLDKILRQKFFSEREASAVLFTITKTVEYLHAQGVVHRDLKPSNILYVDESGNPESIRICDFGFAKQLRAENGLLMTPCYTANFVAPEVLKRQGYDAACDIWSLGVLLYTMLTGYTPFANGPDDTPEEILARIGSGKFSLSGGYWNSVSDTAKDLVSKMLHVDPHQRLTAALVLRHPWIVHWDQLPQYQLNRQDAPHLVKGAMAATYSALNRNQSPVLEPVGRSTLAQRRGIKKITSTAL

Q: With `C[C@@H]1C[C@H]2O[C@@H]2/C=C\C=C\C(=O)Cc2c(Cl)c(O)cc(O)c2C(=O)O1` [RADICICOL] as the molecule, how does the ΔTm read?
A: 0.2 °C

Q: Which ΔTm does the source give for `Cc1c2ccncc2c(C)c2c1[nH]c1ccccc12` [ELLIPTECINE] here?
A: 3.7 °C

Q: With `O=C1C(Cl)=C(N2C(=O)CCC2=O)C(=O)c2ccccc21` as the molecule, how does the ΔTm read?
A: -0.8 °C

Q: Which ΔTm does the source give for `O=C1Nc2ccc(S(=O)(=O)O)cc2/C1=C1/Nc2ccccc2/C1=N\O` here?
A: 5.6 °C

Q: For `C[S+]([O-])c1ccc(-c2nc(-c3ccc(F)cc3)c(-c3ccncc3)[nH]2)cc1` (stereo not given) [SB-203580], which ΔTm is on record?
A: 0.3 °C

biological target: Serine/threonine-protein kinase 16 (Homo sapiens) (UniProt O75716)
Sequence (O75716 whole entry): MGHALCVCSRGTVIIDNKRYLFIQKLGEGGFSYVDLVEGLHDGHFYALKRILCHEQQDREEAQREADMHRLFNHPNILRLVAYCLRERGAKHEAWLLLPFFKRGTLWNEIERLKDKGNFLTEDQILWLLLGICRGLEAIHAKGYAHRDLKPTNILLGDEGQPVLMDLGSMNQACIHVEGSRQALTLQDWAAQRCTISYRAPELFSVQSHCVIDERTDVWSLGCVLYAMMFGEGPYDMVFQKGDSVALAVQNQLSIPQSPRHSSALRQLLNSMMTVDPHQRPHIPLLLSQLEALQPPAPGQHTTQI

Q: `C[C@@H]1C[C@H]2O[C@@H]2/C=C\C=C\C(=O)Cc2c(Cl)c(O)cc(O)c2C(=O)O1` [RADICICOL] was tested. Which ΔTm did it give?
A: 0.3 °C

Q: `Cc1c2ccncc2c(C)c2c1[nH]c1ccccc12` [ELLIPTECINE] was tested. Which ΔTm did it give?
A: 10.7 °C

Q: With `O=C1C(Cl)=C(N2C(=O)CCC2=O)C(=O)c2ccccc21` as the molecule, how does the ΔTm read?
A: -0.1 °C

Q: With `O=C1Nc2ccc(S(=O)(=O)O)cc2/C1=C1/Nc2ccccc2/C1=N\O` as the molecule, how does the ΔTm read?
A: 4.9 °C

Q: `C[S+]([O-])c1ccc(-c2nc(-c3ccc(F)cc3)c(-c3ccncc3)[nH]2)cc1` (stereo not given) [SB-203580] was tested. Which ΔTm did it give?
A: 0.4 °C

biological target: T2, Serine/threonine-protein kinase 4 (Homo sapiens) (UniProt Q13043)
T2 sequence (whole entry): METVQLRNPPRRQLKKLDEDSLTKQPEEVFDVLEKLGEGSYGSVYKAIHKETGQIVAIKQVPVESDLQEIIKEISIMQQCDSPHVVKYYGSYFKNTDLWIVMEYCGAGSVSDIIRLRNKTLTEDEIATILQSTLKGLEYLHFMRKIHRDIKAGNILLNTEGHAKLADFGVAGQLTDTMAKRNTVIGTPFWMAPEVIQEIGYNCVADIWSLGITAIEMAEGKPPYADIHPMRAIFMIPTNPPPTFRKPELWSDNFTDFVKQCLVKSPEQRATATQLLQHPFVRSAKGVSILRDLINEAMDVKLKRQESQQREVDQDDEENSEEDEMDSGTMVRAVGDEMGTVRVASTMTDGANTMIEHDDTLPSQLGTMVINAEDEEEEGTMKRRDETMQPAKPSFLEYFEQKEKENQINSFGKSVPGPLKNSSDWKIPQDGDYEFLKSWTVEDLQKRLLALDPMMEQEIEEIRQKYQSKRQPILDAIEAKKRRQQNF

Q: Which ΔTm does the source give for `C[C@@H]1C[C@H]2O[C@@H]2/C=C\C=C\C(=O)Cc2c(Cl)c(O)cc(O)c2C(=O)O1` [RADICICOL] here?
A: 0.3 °C

Q: `Cc1c2ccncc2c(C)c2c1[nH]c1ccccc12` [ELLIPTECINE] was tested. Which ΔTm did it give?
A: 4 °C

Q: For `O=C1C(Cl)=C(N2C(=O)CCC2=O)C(=O)c2ccccc21`, which ΔTm is on record?
A: -0.8 °C

Q: With `O=C1Nc2ccc(S(=O)(=O)O)cc2/C1=C1/Nc2ccccc2/C1=N\O` as the molecule, how does the ΔTm read?
A: 7.4 °C

Q: How did the ΔTm turn out when `C[S+]([O-])c1ccc(-c2nc(-c3ccc(F)cc3)c(-c3ccncc3)[nH]2)cc1` (stereo not given) [SB-203580] was run?
A: 1 °C

biological target: T3, Lymphokine-activated killer T-cell-originated protein kinase (Homo sapiens) (UniProt Q96KB5)
T3 sequence (whole entry): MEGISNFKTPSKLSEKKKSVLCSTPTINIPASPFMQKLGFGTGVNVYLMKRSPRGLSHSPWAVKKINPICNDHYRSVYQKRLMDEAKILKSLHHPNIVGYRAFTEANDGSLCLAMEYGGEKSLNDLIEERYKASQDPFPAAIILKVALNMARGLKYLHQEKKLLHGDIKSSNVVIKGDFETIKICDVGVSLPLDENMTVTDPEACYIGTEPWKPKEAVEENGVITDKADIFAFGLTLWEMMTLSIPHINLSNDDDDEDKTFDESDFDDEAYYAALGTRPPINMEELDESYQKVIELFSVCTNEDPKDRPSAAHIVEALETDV

Q: Which ΔTm does the source give for `C[C@@H]1C[C@H]2O[C@@H]2/C=C\C=C\C(=O)Cc2c(Cl)c(O)cc(O)c2C(=O)O1` [RADICICOL] here?
A: 0.2 °C

Q: Which ΔTm does the source give for `Cc1c2ccncc2c(C)c2c1[nH]c1ccccc12` [ELLIPTECINE] here?
A: 0.3 °C

Q: How did the ΔTm turn out when `O=C1C(Cl)=C(N2C(=O)CCC2=O)C(=O)c2ccccc21` was run?
A: -4.4 °C

Q: Which ΔTm does the source give for `O=C1Nc2ccc(S(=O)(=O)O)cc2/C1=C1/Nc2ccccc2/C1=N\O` here?
A: 0.4 °C

Q: With `C[S+]([O-])c1ccc(-c2nc(-c3ccc(F)cc3)c(-c3ccncc3)[nH]2)cc1` (stereo not given) [SB-203580] as the molecule, how does the ΔTm read?
A: 0.2 °C

biological target: Serine/threonine-protein kinase VRK2 (Homo sapiens) (UniProt Q86Y07)
Sequence (Q86Y07 whole entry): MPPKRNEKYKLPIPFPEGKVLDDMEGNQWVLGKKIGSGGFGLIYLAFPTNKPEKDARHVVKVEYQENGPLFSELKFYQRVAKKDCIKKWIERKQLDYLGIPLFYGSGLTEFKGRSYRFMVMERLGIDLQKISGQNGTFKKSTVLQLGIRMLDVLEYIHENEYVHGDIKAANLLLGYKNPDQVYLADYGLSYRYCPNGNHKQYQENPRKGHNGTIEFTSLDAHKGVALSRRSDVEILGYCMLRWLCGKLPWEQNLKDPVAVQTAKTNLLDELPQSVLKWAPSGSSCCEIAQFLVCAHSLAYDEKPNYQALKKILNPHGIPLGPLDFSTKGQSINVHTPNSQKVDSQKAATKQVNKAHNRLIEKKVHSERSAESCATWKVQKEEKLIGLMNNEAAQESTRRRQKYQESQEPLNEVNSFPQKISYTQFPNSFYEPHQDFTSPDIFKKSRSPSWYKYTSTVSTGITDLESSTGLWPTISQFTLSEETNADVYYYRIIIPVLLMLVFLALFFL

Q: With `C[C@@H]1C[C@H]2O[C@@H]2/C=C\C=C\C(=O)Cc2c(Cl)c(O)cc(O)c2C(=O)O1` [RADICICOL] as the molecule, how does the ΔTm read?
A: 0.2 °C

Q: `Cc1c2ccncc2c(C)c2c1[nH]c1ccccc12` [ELLIPTECINE] was tested. Which ΔTm did it give?
A: -0.7 °C

Q: With `O=C1C(Cl)=C(N2C(=O)CCC2=O)C(=O)c2ccccc21` as the molecule, how does the ΔTm read?
A: -0.3 °C

Q: `O=C1Nc2ccc(S(=O)(=O)O)cc2/C1=C1/Nc2ccccc2/C1=N\O` was tested. Which ΔTm did it give?
A: 4 °C

Q: Which ΔTm does the source give for `C[S+]([O-])c1ccc(-c2nc(-c3ccc(F)cc3)c(-c3ccncc3)[nH]2)cc1` (stereo not given) [SB-203580] here?
A: 0.6 °C
